Measured values: patent US20230219904A1 (SYNGENTA CROP PROTECTION AG, priority 2020, published 2023)

Legend:
Type in all cases: in vivo
[1] = tested on: Abutilon theophrasti (ABUTH); experiment: Post-emergence herbicidal glasshouse test (Table B1); conditions: applied at 500 g/h, evaluated after 13 days
Outline: (§1)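 In this pot assay, seedlings or sown soil receive a spray of formulated active ingredient (acetone/water 50:50, 0.5% Tween 20) at 500 g/h unless indicated. Conditions: 24/16° C day/night, 14 hours light, 65% humidity, watering twice daily. Injury is scored after 13 days, 1 (0-19%) to 5 (80-100%).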

[2] = tested on: Ipomoea hederacea (IPOHE); experiment: as above; conditions: applied at 500 g/h, evaluated after 13 days
Outline: as §1

[3] = tested on: Echinochloa crus-galh (ECHCG); experiment: as above; conditions: applied at 500 g/h, evaluated after 13 days
Outline: as §1

Setaria faberi (SETFA) [4] = experiment: as above; conditions: applied at 500 g/h, evaluated after 13 days
Outline: as §1

[5] = tested on: Amaranthus retoflexus (AMARE); experiment: as above; conditions: applied at 500 g/h, evaluated after 13 days
Outline: as §1

[6] = tested on: Abutilon theophrasti (ABUTH); experiment: Pre-emergence herbicidal glasshouse test (Table B1); conditions: applied at 500 g/h, evaluated after 13 days
Outline: as §1

[7] = tested on: Ipomoea hederacea (IPOHE); experiment: as above; conditions: applied, evaluated after 13 days
Outline: as §1

[8] = tested on: Echinochloa crus-galh (ECHCG); experiment: as above; conditions: applied at 500 g/h, evaluated after 13 days
Outline: as §1

Setaria faberi (SETFA) [9] = experiment: as above; conditions: applied at 500 g/h, evaluated after 13 days
Outline: as §1

[10] = tested on: Amaranthus retoflexus (AMARE); experiment: as above; conditions: applied at 500 g/h, evaluated after 13 days
Outline: as §1

CCCn1nnnc1NC(=O)c1ccc(OC(F)(F)F)c(NC(=O)c2ccccn2)c1Cl [Compound 1.132]
POST Application ABUTH, percentage damage on five-point scale [1]: 5 (5=80-100%)
POST Application IPOHE, percentage damage on five-point scale [2]: 5 (5=80-100%)
POST Application ECHCG, percentage damage on five-point scale [3]: 5 (5=80-100%)
POST Application SETFA, percentage damage on five-point scale (Setaria faberi (SETFA) [4]): 5 (5=80-100%)
POST Application AMARE, percentage damage on five-point scale [5]: 5 (5=80-100%)
PRE Application ABUTH, percentage damage on five-point scale [6]: 4 (4=60-79%)
PRE Application IPOHE, percentage damage on five-point scale [7]: 4 (4=60-79%)
PRE Application ECHCG, percentage damage on five-point scale [8]: 3 (3=40-59%)
PRE Application SETFA, percentage damage on five-point scale (Setaria faberi (SETFA) [9]): 1 (1=0-19%)
PRE Application AMARE, percentage damage on five-point scale [10]: 5 (5=80-100%)

Cc1nnc(NC(=O)c2ccc(OC(F)(F)F)c(N(C)C)c2Cl)o1 [Compound 2.001, 2-chloro-3-(dimethylamino)-N-(5-methyl-1,3,4-oxadiazol-2-yl)-4-(trifluoromethoxy)benzamide]
POST Application ABUTH, percentage damage on five-point scale [1]: 4 (4=60-79%)
POST Application IPOHE, percentage damage on five-point scale [2]: 5 (5=80-100%)
POST Application ECHCG, percentage damage on five-point scale [3]: 5 (5=80-100%)
POST Application SETFA, percentage damage on five-point scale (Setaria faberi (SETFA) [4]): 5 (5=80-100%)
POST Application AMARE, percentage damage on five-point scale [5]: 5 (5=80-100%)
PRE Application ABUTH, percentage damage on five-point scale [6]: 4 (4=60-79%)
PRE Application IPOHE, percentage damage on five-point scale [7]: 3 (3=40-59%)
PRE Application ECHCG, percentage damage on five-point scale [8]: 5 (5=80-100%)
PRE Application SETFA, percentage damage on five-point scale (Setaria faberi (SETFA) [9]): 5 (5=80-100%)
PRE Application AMARE, percentage damage on five-point scale [10]: 5 (5=80-100%)

CC(=O)Nc1c(OC(F)(F)F)ccc(C(=O)Nc2nnc(C)o2)c1Cl [Compound 2.002]
POST Application ABUTH, percentage damage on five-point scale [1]: 5 (5=80-100%)
POST Application IPOHE, percentage damage on five-point scale [2]: 5 (5=80-100%)
POST Application ECHCG, percentage damage on five-point scale [3]: 5 (5=80-100%)
POST Application SETFA, percentage damage on five-point scale (Setaria faberi (SETFA) [4]): 5 (5=80-100%)
POST Application AMARE, percentage damage on five-point scale [5]: 5 (5=80-100%)
PRE Application ABUTH, percentage damage on five-point scale [6]: 3 (3=40-59%)
PRE Application IPOHE, percentage damage on five-point scale [7]: 1 (1=0-19%)
PRE Application ECHCG, percentage damage on five-point scale [8]: 1 (1=0-19%)
PRE Application SETFA, percentage damage on five-point scale (Setaria faberi (SETFA) [9]): 1 (1=0-19%)
PRE Application AMARE, percentage damage on five-point scale [10]: 1 (1=0-19%)

CC(=O)N(C)c1c(OC(F)(F)F)ccc(C(=O)Nc2nnc(C)o2)c1Cl [Compound 2.003]
POST Application ABUTH, percentage damage on five-point scale [1]: 5 (5=80-100%)
POST Application IPOHE, percentage damage on five-point scale [2]: 5 (5=80-100%)
POST Application ECHCG, percentage damage on five-point scale [3]: 5 (5=80-100%)
POST Application SETFA, percentage damage on five-point scale (Setaria faberi (SETFA) [4]): 5 (5=80-100%)
POST Application AMARE, percentage damage on five-point scale [5]: 5 (5=80-100%)
PRE Application ABUTH, percentage damage on five-point scale [6]: 5 (5=80-100%)
PRE Application IPOHE, percentage damage on five-point scale [7]: 4 (4=60-79%)
PRE Application ECHCG, percentage damage on five-point scale [8]: 5 (5=80-100%)
PRE Application SETFA, percentage damage on five-point scale (Setaria faberi (SETFA) [9]): 5 (5=80-100%)
PRE Application AMARE, percentage damage on five-point scale [10]: 5 (5=80-100%)

Cc1nnc(NC(=O)c2ccc(OC(F)(F)F)c(N3CCCCC3=O)c2Cl)o1 [Compound 2.004]
POST Application ABUTH, percentage damage on five-point scale [1]: 5 (5=80-100%)
POST Application IPOHE, percentage damage on five-point scale [2]: 5 (5=80-100%)
POST Application ECHCG, percentage damage on five-point scale [3]: 5 (5=80-100%)
POST Application SETFA, percentage damage on five-point scale (Setaria faberi (SETFA) [4]): 5 (5=80-100%)
POST Application AMARE, percentage damage on five-point scale [5]: 5 (5=80-100%)
PRE Application ABUTH, percentage damage on five-point scale [6]: 4 (4=60-79%)
PRE Application IPOHE, percentage damage on five-point scale [7]: 1 (1=0-19%)
PRE Application ECHCG, percentage damage on five-point scale [8]: 5 (5=80-100%)
PRE Application SETFA, percentage damage on five-point scale (Setaria faberi (SETFA) [9]): 5 (5=80-100%)
PRE Application AMARE, percentage damage on five-point scale [10]: 5 (5=80-100%)
